Experimental data taken from patent publication US8592363B2, “ψεrack peptide composition and method for protection against tissue damage due to ischemia” (The Board of Trustees of the Leland Stanford Junior …, priority 2000, dated 2013).

Tests used:
ex vivo rat hearts = assay: Ex vivo administration of ψεRACK prior to ischemia: CPK release in perfusate of Langendorff-perfused hearts; settings: 0.5 μM peptide for 20 minutes prior to 45 minutes global ischemia; 30 minute reperfusion; FIG. 1A
Procedure: Animals were anesthetized as described in Example 1 and their hearts were rapidly removed and cannulated for perfusion on a Langendorff apparatus. Hemodynamic parameters were monitored until stabilized, typically for 10-20 minutes. After equilibration, ψεRACK peptide (SEQ ID NO:2) or a scrambled ψεRACK peptide (SEQ ID NO:4) were delivered to the hearts via the coronary arteries using 0.5 μM of peptide for 20 minutes.
To induce global ischemia, flow to the hearts was interrupted for 45 minutes. The hearts were then reperfused for 30 minutes. During reperfusion, ischemic-induced cell damage was determined by measuring the activity of creatine phosphokinase (absorbance at 520 nm) in the perfusate. […]
Mice or rats were anesthetized with i.p. avertin, and their hearts were rapidly removed and cannulated via the aorta for reperfusion as described in the art (Colbert et al, 1997). […] The left ventricular pressure and real-time derivative (dP/dt) were monitored via a catheter placed in the ventricular apex. […]
To induce global ischemia, flow was interrupted for 45 minutes. […] During reperfusion, ischemia-induced cell damage was determined by measuring the activity of creatine phosphokinase (CPK) (absorbance at 520 nm) in the perfusate using a Sigma kit.

pig heart [1] = assay: In vivo administration during LAD balloon occlusion in pigs: infarct area of area at risk; settings: for infarct of area at risk: about 20 μg peptide during first 10 minutes of 30 minute occlusion, hearts analysed five days later, average, p<0.005
Procedure: In another study in support of the invention, the ability of ψεRACK peptide to protect tissue from damage due to an ischemic or hypoxic event was evaluated by administering the peptide in vivo. As detailed in Example 3, ψεRACK peptide (SEQ ID NO:2) or scrambled ψεRACK peptide (SEQ ID NO:4) was administered to adult pigs during the first 10 minutes of a 30 minutes ischemic insult. Five days later, the hearts were analyzed for tissue damage.
Young adult female pigs, 35-40 kg in weight, were anesthetized and a catheter was introduced through the carotid artery into the heart. Using conventional intervention cardiology techniques, a wire was placed through a catheter and into the left anterior descending artery (LAD): A balloon was run over this wire to a site of occlusion where it was then inflated to block blood flow for 30 minutes. During the first 10 minutes of the ischemic insult, either the control scrambled ψεRACK peptide (SEQ ID NO:4, n=5) or the biologically active RACK peptide (SEQ ID NO:2, n=5) was delivered by diffusion through the balloon directly downstream of the occlusion. Approximately 20 μg peptide (˜400 ng per kg body weight) was administered.
After 30 minutes of occlusion, the balloon was removed and pigs were left to recover from surgery. Five days later, the pigs were euthanized and hearts were harvested. After heart removal, the LAD was occluded. With the occlusion in place, Evans Blue dye, which stains all areas not at risk of infarct in blue while leaving all areas with no access to blood flow red, was infused. Hearts were then cut into slices and stained with a tetrazolium red dye which stains all live areas red and infarcted dead tissue in white. Each heart had multiple tissue slices with distinctive areas marking the area at risk for ischemia and the infarcted area. From this the percent infarct per area at risk for each slice and for the entire heart was determined.

ex vivo hearts = assay: Functional recovery of ex vivo hearts after global ischemia (left ventricle pressure, dP/dt, perfusion pressure); design: species or system Mice or rats; settings: 500 nM peptide prior to 30 minute global ischemia; 30 minute reperfusion
Procedure: In another study in support of the invention, the functional recovery of ex vivo hearts after an ischemic event was evaluated by monitoring, the isovolumic left ventricle pressure (LVP) at a constant pacing (3.3 Hz) and at a constant coronary flow (10 mL/min), as described in Example 1. Prior to the ischemic event, the hearts were treated with 500 nM ψεRACK (SEQ ID NO:2) or with scrambled ψεRACK peptide (SEQ ID NO:4). After the 30 minute global ischemia, the hearts were monitored during a 30 minute reperfusion period.
Mice or rats were anesthetized with i.p. avertin, and their hearts were rapidly removed and cannulated via the aorta for reperfusion as described in the art (Colbert et al, 1997). Care was taken to have the hearts perfused within 90 seconds of removal. The left ventricular pressure and real-time derivative (dP/dt) were monitored via a catheter placed in the ventricular apex. Hemodynamic parameters were archived every 20 seconds throughout the procedure. The hearts were perfused with oxygenated Krebs-Henseleit solution comprised of, in […], NaCl 120; KCl 5.8; NaHCO3 25; NaH2O4 1.2; MgSO4 1.2; CaCl2 1.0; and dextrose 10, pH 7.4 at 37 C.
After a 10-20 minute equilibration period, the hearts were treated with ψεRACK peptide (SEQ ID NO:2) or with scrambled ψεRACK peptide (SEQ ID NO:4) for 20 minutes. […]

whole rat hearts = assay: Ex vivo administration of ψεRACK after ischemia: CPK release in perfusate during reperfusion; settings: 0.5 μM peptide for first 20 minutes of reperfusion after 45 minutes ischemia; 60 minute period; FIG. 3B
Procedure: In another study performed in support of the invention, ψεRACK was administered to hearts ex vivo after a prolonged ischemic period and was effective to provide protection from ischemic injury. As described in Example 2, whole rat hearts were perfused on a Langendorff apparatus. After a 30 minute equilibration period, global ischemia was induced by stopping fluid flow for 45 minutes. The hearts were then reperfused with or without ψεRACK peptide for 20 minutes followed by 40 minutes perfusion without peptide. During the 60 minutes following ischemia (20 minutes of peptide reperfusion plus 40 minutes perfusion), the CPK activity in the perfusate was analyzed.
Rat hearts were prepared as described in Example 1. After a 30 minute equilibration period, global ischemia was induced by interrupting fluid flow for 45 minutes. The hearts were then reperfused with 0.5 μM of ψεRACK peptide for 20 minutes, followed by 40 minutes of reperfusion without the peptide. As a control, some hearts were left untreated after ischemia. During the 60 minute period following ischemia, ischemia-induced cell damage was determined by monitoring the creatine phosphokinase (CPK) activity (absorbance at 520 nm) in the perfusate collected during reperfusion.

pig heart [2] = assay: Left ventricurogram (ejection fraction) in pigs after LAD occlusion; type: in vivo
Procedure: In another study, left ventricurogram (LVG) was performed in pigs (n=5) at three time points: (1) before occlusion of left anterior descending artery by balloon catheter (before occlusion); (2) immediately after reperfusion with 5 μM/10 mL of ψεRACK (post ψεRACK); and (3) before sacrifice five days later (5 days post), using 6 Fr. of pig-tail catheter. LVG was recorded by two views, right anterior oblique and left anterior oblique. Ejection fraction (EF), the percent of blood ejected in a beat, during maximum contraction, of the total maximum present in the left ventricle, was analyzed by the software, Plus Plus (Sanders Data Systems), and the averages of two views were evaluated. […] Accordingly, delivery of a ψεRACK peptide in vivo after ischemia is effective to reduce cell and tissue damage, as evidenced by an ejection fraction at least 10% greater than that of untreated cells or tissues.

[3] = pigs, 5 days post ischemia and treatment

Row | Sequence | creatine phosphokinase (CPK) release during reperfusion (ex vivo rat hearts) | infarct of area at risk (pig heart [1]) [%] | coronary perfusion pressure (ex vivo hearts) | elevated LVP end diastolic pressure (ex vivo hearts) | lower total CPK release versus untreated hearts (whole rat hearts) [fold] | reduction of percent infarct versus scrambled peptide control (pig heart [1]; infarct area as percent of area at risk, in grams of cardiac tissue, FIG. 4C) | ejection fraction after occlusion compared to control animals treated with scrambled peptide (pig heart [2]; pigs n=5, 5 μM/10 mL ψεRACK, immediately after reperfusion, FIG. 5) | ejection fraction compared with that before ischemia (pig heart [2]; [3]) | ejection fraction higher than the untreated animals (pig heart [2]; [3])
1 | PDYHDAGI (scrambled pseudo-epsilon RACK octapeptide) [scrambled ψεRACK, scrambled ψεRACK octapeptide, negative control, reference compound] | significant release of CPK | 36.5±0.3 | – | – | – | – | – | – | –
2 | HDAPIGYD (pseudo-epsilon RACK octapeptide) [ψεRACK, ψεRACK octapeptide, εPKC specific agonist peptide] | close to the control hearts maintained under normoxia conditions | 14.9±6 | reduced | reduced | ~2 | more than 2 fold | higher ejection fraction | on par with that measured prior to ischemia | about 10%
